The text below walks through data of article PMC6559721 (Biochemistry, 2017).

This assay deals with BthII1283 (Burkholderia thailandensis, UniProt Q2T5S0).

Turning to `Cn1c(=O)[nH]c2nncnc2c1=O` [1-DMT], the “HPLC and HRMS of methylation product” value is “Reumycin (1-DMT) is converted to a single product with an identical retention time”.
